Structures can show the parent of a compound that is named as a salt.

Experiment [1] has as its system MeWo brain metastatic derivative cells. Put plainly: brain metastasis assay, intracardiac injection. The experiment is classed as in vivo, mouse. The following applies: oral, diet 100 mg/kg. As to the method:
Melanoma cells used for in vivo metastasis assays were transduced with a stably expressed retroviral construct encoding a luciferase reporter gene (Ponomarev et al., 2004), allowing us to monitor the in vivo progression of melanoma cells by bioluminescence imaging. The following numbers of melanoma cells, resuspended in 100 μL of PBS, were injected intravenously via the tail-vein: 4×10^4 MeWo cells, 2.5×10^5 HT-144 cells, 2×10^5 SK-Mel-334.2 cells, 5×10^4B 16F10 cells, and 1×10^5YUMM cells. The MeWo, HT-144, and SK-Mel-334.2 cells were injected into 6-8 week-old sex-matched NOD scid mice, while the B16F10 and YUMM cells were injected into 6-8 week-old sex-matched C57BL/6 mice. In all experiments assessing at the effects of GW3965 on metastasis formation, mice were pre-treated on a control diet or a GW3965-supplemented diet (20 mg/kg) for 10 days. To assess the effect of GW3965 treatment on brain metastasis, 1×10^5 MeWo brain-metastatic derivatives were injected intracardially into athymic nude mice. Immediately following injection, mice were randomly assigned to a control diet or GW3965-supplemented diet (100 mg/kg). […]

Experiment [2] deals with Tyr::CreER; B-RafV600E/+; Ptenlox/+ and Ptenlox/lox mice. Put plainly: genetically-initiated model of melanoma progression. The experiment is classed as in vivo, mouse. Here is the method: The Tyr::CreER; B-Raf^V600E/+; Pten^lox/+/Tyr::CreER; B-Raf^V600E/+; Pten^lox/lox conditional model of melanoma progression was previously established and characterized by Dankort et al. (2009). Briefly, melanoma in these mice was induced at 6 weeks of age by intraperitoneally injecting 4-HT (H6278, 70% isomer, Sigma-Aldrich, St Louis, Mo.) at 25 mg/kg administered in peanut oil on three consecutive days. The 4-HT stock solution was prepared by dissolving it in 100% EtOH at 50 mg/mL by heating at 45° C. for 5 min and mixing. Once dissolved, the stock 4-HT solution was then diluted by 10-fold in peanut oil, yielding a 5 mg/mL 4-HT working solution that was then injected into mice. After the first 4-HT injection, mice were blindedly assigned to receive either a control diet or a diet supplemented with GW3965 (100 mg/kg). Mice were examined three times a week for the presence and progression of melanoma lesions. At day 35, dorsal skin samples were harvested from control-treated and GW3965-treated mice, fixed in 4% PFA and photographed at 10×. The percentage of pigmented melanoma lesion area out of the total skin area was quantified using ImageJ. For survival analyses, mice were monitored daily for melanoma progression and euthanized according to a standard body condition score, taking into account initial signs of moribund state and discomfort associated with the progression of melanoma burden. Post-mortem, the lungs, brains, and salivary glands were harvested and examined for the presence of macroscopic melanoma lesions.

Experiment [3] concerns MeWo melanoma cells. Put plainly: orthotopic metastasis assay after tumor excision. The following applies: oral, chow 100 mg/kg for 1 month. The experiment is classed as in vivo, mouse. As to the method: To determine the effect of GW3965 treatment on lung colonization by melanoma cells dissociated from an orthotopic site, 1×10^6 MeWo cells expressing a luciferase reporter were subcutaneously injected into both lower flanks of NOD Scid mice. Upon the formation of tumors measuring ˜300 mm^3 in volume, the tumors were excised and the mice were randomly assigned to a control diet or a GW3965-supplemented diet (100 mg/kg) treatment. One month after tumor excision, the lungs were extracted and lung colonization was measured by ex vivo bioluminescence imaging. To histologically confirm the extent of melanoma lung colonization, lungs were then fixed in 4% PFA overnight, paraffin-embedded, section into […] increments and stained for human vimentin (VP-V684, Vector Laboratories).

The subject of experiment [4] is B16F10 mouse melanoma cells. Put plainly: subcutaneous B16F10 tumor growth in mice. Type of experiment: in vivo. The following applies: chow 100 mg/kg. As to the method: First, the cells were treated with 500 μg/mL DTIC for one week. Following this initial DTIC treatment, the remaining (˜10%) viable cells were allowed to recover for one week, after which 750 μg/mL of DTIC was added to the cell media for 5 days. Subsequent to this high-dose treatment, the cells were allowed to recover in the presence of low-dose DTIC (100 μg/mL) for one week. The cells were then continuously cultured in cell media containing 200 μg/mL DTIC for at least one month prior to grafting the cells into mice. DTIC was added to fresh cancer cell media every 3 days. […] DTIC was dissolved in the presence of citric acid (1:1 by weight) in water and administered daily by intraperitoneal injection.

Experiment [5] has as its system MeWo, SK-Mel-2, SK-Mel-334.2, SK-Mel-239 human melanoma cells. Put plainly: subcutaneous human melanoma tumor growth in immunocompromised mice. Type of experiment: in vivo, mouse.
In experiment [6] the test system is breast cancer, renal cell cancer and pancreatic cancer cell lines. Briefly: endothelial recruitment by other cancer types. The experiment is classed as cell-based, human.
Experiment [7] concerns endothelial cells (HUVEC). Briefly: endothelial migration and chemotaxis assays. Type of experiment: cell-based, human. The following applies: cancer cell-free system. Here is the method:
Serum-starved HUVEC's were pulsed with Cell Tracker Red CMTPX dye for 45 minutes and seeded into HTS Fluoroblock trans-well inserts at a concentration of 1×10^5 HUVEC's in 0.5 mL starvation media per each insert. The assay was allowed to proceed for 16-18 hours at 37° C., and the inserts were processed and analyzed as described above (See Matrigel Invasion Assay).
HUVEC's were serum-starved in 0.2% FBS EGM-2 media for 16 hours and labeled with Cell Tracker Red CMTPX dye for 45 minutes. Meanwhile, the indicated amounts (1-5 μg) of recombinant human ApoE3 or BSA were mixed with 250 μL of matrigel (356231, BD Biosciences) and allowed to solidify at the bottom of a 24-well plate for 30 min. 250 μL of HUVEC EGM-2 media containing 0.2% FBS was then added to each matrigel-coated well, and […] HTS Fluoroblock inserts were fitted into each well. 1×10^5 HUVEC's, resuspended in 0.5 mL of starvation media, were seeded into each insert and allowed to migrate along the matrigel gradient for 16-18 hours at 37° C. Upon completion of the assay, the inserts were mounted on slides and analyzed as described above (See Matrigel Invasion Assay).

On to `O=C(O)Cc1cccc(OCCCN(Cc2cccc(C(F)(F)F)c2Cl)CC(c2ccccc2)c2ccccc2)c1` [GW3965 2, 3-[3-[N-(2-Chloro-3-trifluoromethylbenzyl)-(2,2-diphenylethyl)amino]propyloxy] phenylacetic acid hydrochloride], for which, in experiment [1], the brain colonization result is “inhibited” and the systemic dissemination result is given as “inhibited”. Further, the “number of lymphatic metastases detected post-mortem” value in experiment [2] (Ptenlox/lox mice, chow 100 mg/kg) is “decrease”. For the same compound, the tumor progression result in experiment [2] (oral, diet 100 mg/kg after melanoma initiation) is “attenuated”. Moreover, the overall survival times result in experiment [2] (oral, diet 100 mg/kg, Ptenlox/+ and Ptenlox/lox mice) is “significantly extended”. The “inhibition of lung colonization by disseminated melanoma cells post-tumor excision” value in experiment [3] is 17 fold. Also, in experiment [4], the “suppression of tumor growth by DTIC-resistant B16F10 clone” value was “more than 70%”. Further, the “overall survival time of tumor-bearing mice” value in experiment [5] (B16F10, MeWo, SK-Mel-334.2 tumors, chow 100 mg/kg) is “substantially prolonged”. Also, in experiment [5] (diet 100 mg/kg), the “suppression of growth of SK-Mel-239 vemurafenib-resistant line” value was 72% and the “survival of mice bearing vemurafenib-resistant melanoma burden” value is given as “significantly prolonged”. In addition, in experiment [5] (oral administration), the “tumor growth inhibition, MeWo” value came to 70%; the “tumor growth inhibition, SK-Mel-2” value is listed as 49%; the “tumor growth inhibition, SK-Mel-334.2” value worked out at 73%. For the same compound, in experiment [5] (oral, diet 100 mg/kg), the “growth of in vivo-derived DTIC-resistant MeWo tumors” value was “strongly inhibited”.
Consider “recombinant ApoE3: recombinant human ApoE3 (4696, BioVision)”, for which the “endothelial recruitment across breast, renal cell and pancreatic cancer” value in experiment [6] is “inhibited”. Also, the “endothelial migration in trans-well and gradient-based chemotactic assay” value in experiment [7] is recorded as “sufficient to inhibit”.

Values taken from patent publication US10543183B2, “Treatment and diagnosis of melanoma” (The Rockefeller University, priority 2012, dated 2020).
